{"source": "patent US7838542B2", "about": "“Bicyclic compositions and methods for modulating a kinase cascade” (Kinex Pharmaceuticals, LLC, priority 2006, dated 2010)", "key": {"[1]": {"target": "T1, pp60^c-src (Homo sapiens, UniProt P12931)", "experiment": "Src inhibition (RR-SRC phosphorylation), Cellular Mimetic assay", "details": "inhibitor 100 μM; Table IX"}, "[2]": {"target": "T1, pp60^c-src", "details": "literature value; read-out: IC50 (μM), Lit; cited from earlier work"}, "[3]": {"test_system": "Chinchillas", "experiment": "Noise-induced hearing loss, round window application (Example 8)", "assay_type": "in vivo, chinchilla", "parameters": "threshold shift, 0.5 kHz / threshold shift, 1 kHz / threshold shift, 2 kHz / threshold shift, 4 kHz / threshold shift, 8 kHz / average threshold shift, 0.5 kHz / average threshold shift, 1 kHz / average threshold shift, 2 kHz / average threshold shift, 4 kHz / average threshold shift, 8 kHz: unit not given here", "details": "for average threshold shift, 0.5 kHz / average threshold shift, 1 kHz / average threshold shift, 2 kHz / average threshold shift, 4 kHz / average threshold shift, 8 kHz: Table XIV; for threshold shift, 0.5 kHz / threshold shift, 1 kHz / threshold shift, 2 kHz / threshold shift, 4 kHz / threshold shift, 8 kHz: individual animals, listed as CH65", "procedure": "Chinchillas (N=8) were used in studies of noise-induced hearing loss. The animals' hearing sensitivity was measured using standard electrophysical techniques before the experimental manipulation. […] Animals were anesthetized, the auditory bullae were opened, and the left and right cochleas were visualized. The round window leading to the scala tympani of the cochlea was used as the access point for drug application. […] In each case, the solution was allowed to set on the round window for 30 minutes, then the auditory bullae were closed. Subsequently, the animals were exposed to 4 kHz band noise at 105 dB SPL for four hours. Following the noise exposure, the animals' hearing was tested at day 1, day 3, day 7, and day 20 to determine evoked potential threshold shifts. Permanent threshold shift was assessed at day 20. The cochleas were harvested at day 20 to allow for morphological examination of the cochleas."}, "[4]": {"test_system": "Chinchillas", "experiment": "Noise-induced hearing loss, round window application (Example 12)", "assay_type": "in vivo, chinchilla", "details": "4 kHz band noise at 105 dB SPL, four hours, day 1, 7, 21", "procedure": "Chinchillas (N=6) were used in studies of noise-induced hearing loss. The animals' hearing sensitivity was measured using standard electrophysical techniques before the experimental manipulation. […] Animals were anesthetized, the auditory bullae were opened, and the left and right cochleas were visualized. The round window leading to the scala tympani of the cochlea was used as the access point for drug application. […] A control solution of 3 mM DMSO in […] of saline solution was placed on the round window of the other ear. The solution was allowed to set on the round window for 30 minutes, then the auditory bullae were closed. Subsequently, the animals were exposed to 4 kHz band noise at 105 dB SPL for four hours. Following the noise exposure, the animals' hearing was tested at day 1, day 7, and day 21 to determine evoked potential threshold shifts. Permanent threshold shift was assessed at day 21."}, "[5]": {"test_system": "Guinea pigs", "experiment": "Cisplatin-induced hearing loss", "assay_type": "in vivo, guinea pig", "details": "subcutaneous, prior to cisplatin", "procedure": "The effects of high level noise and ototoxic drugs, such as cisplatin or the class of aminoglycosides, share several common features in the inner ear. First, the noise and/or drugs alter the free radical/antioxidant levels in the cochlea (inner ear). […] Guinea pigs (N=7) were used in studies of cisplatin-induced hearing loss. The animals' hearing sensitivity was measured using standard electrophysical techniques before the experimental manipulation. […] Animals were anesthetized and treated with cisplatin. Subsequently, the animals' hearing was tested to determine evoked potential threshold shifts.\nAnimals were treated subcutaneously with KX1-004 prior to the cisplatin-induced hearing loss."}}, "note": "Several values for one entry are separate records, joined by “and”; a condition that tells them apart may be missing. Equal entries are not always repeated."}
{"molecule": "CCOc1cc(/C=C(\\C#N)C(N)=O)cc(CSc2ccccc2)c1O", "note": "[ST-638, reference compound]", "values": [{"measurement": "% Inhibition at 100 μM (std. dev.)", "setting": "[1]", "value": "37 (+/−5) %"}, {"measurement": "IC50", "setting": "[2]", "value": 18, "unit": "µM"}]}
{"molecule": "O=C(NCc1cccc(O)c1)c1cc2cc(F)ccc2[nH]1", "note": "[KX1-004]", "values": [{"measurement": "average threshold shift, 0.5 kHz", "setting": "[3]; Day 1", "value": 3.75}, {"measurement": "average threshold shift, 1 kHz", "setting": "[3]; Day 1", "value": 6.875}, {"measurement": "average threshold shift, 2 kHz", "setting": "[3]; Day 1", "value": 25}, {"measurement": "average threshold shift, 4 kHz", "setting": "[3]; Day 1", "value": 42}, {"measurement": "average threshold shift, 8 kHz", "setting": "[3]; Day 1", "value": 22.5}, {"measurement": "threshold shift, 0.5 kHz", "setting": "[3]; Day 1", "value": "0 (2×) and 5 and 10"}, {"measurement": "threshold shift, 1 kHz", "setting": "[3]; Day 1", "value": "2.5 and 20 and 0 and 5"}, {"measurement": "threshold shift, 2 kHz", "setting": "[3]; Day 1", "value": "0 and 25 and 20 and 55"}, {"measurement": "threshold shift, 4 kHz", "setting": "[3]; Day 1", "value": "10 and 35 and 68 and 55"}, {"measurement": "threshold shift, 8 kHz", "setting": "[3]; Day 1", "value": "0 and 30 and 35 and 25"}, {"measurement": "average threshold shift, 0.5 kHz", "setting": "[3]; Day 3", "value": 5.4}, {"measurement": "average threshold shift, 1 kHz", "setting": "[3]; Day 3", "value": 6.9}, {"measurement": "average threshold shift, 2 kHz", "setting": "[3]; Day 3", "value": 18}, {"measurement": "average threshold shift, 4 kHz", "setting": "[3]; Day 3", "value": 27}, {"measurement": "average threshold shift, 8 kHz", "setting": "[3]; Day 3", "value": 15}, {"measurement": "threshold shift, 0.5 kHz", "setting": "[3]; Day 3", "value": "5 (3×) and 0 and 12"}, {"measurement": "threshold shift, 1 kHz", "setting": "[3]; Day 3", "value": "7.5 and 5 and 2 and 0 and 20"}, {"measurement": "threshold shift, 2 kHz", "setting": "[3]; Day 3", "value": "0 (2×) and 15 and 40 and 35"}, {"measurement": "threshold shift, 4 kHz", "setting": "[3]; Day 3", "value": "10 and 0 and 25 and 55 and 45"}, {"measurement": "threshold shift, 8 kHz", "setting": "[3]; Day 3", "value": "0 (2×) and 15 (2×) and 45"}, {"measurement": "average threshold shift, 0.5 kHz", "setting": "[3]; Day 7", "value": 8}, {"measurement": "average threshold shift, 1 kHz", "setting": "[3]; Day 7", "value": 6}, {"measurement": "average threshold shift, 2 kHz", "setting": "[3]; Day 7", "value": 15}, {"measurement": "average threshold shift, 4 kHz", "setting": "[3]; Day 7", "value": 24}, {"measurement": "average threshold shift, 8 kHz", "setting": "[3]; Day 7", "value": 18}, {"measurement": "threshold shift, 0.5 kHz", "setting": "[3]; Day 7", "value": "0 and 5 and 8 and 15 and 12"}, {"measurement": "threshold shift, 1 kHz", "setting": "[3]; Day 7", "value": "0 (3×) and 15 (2×)"}, {"measurement": "threshold shift, 2 kHz", "setting": "[3]; Day 7", "value": "0 (2×) and 15 and 40 and 20"}, {"measurement": "threshold shift, 4 kHz", "setting": "[3]; Day 7", "value": "0 and 5 and 15 and 55 and 45"}, {"measurement": "threshold shift, 8 kHz", "setting": "[3]; Day 7", "value": "0 (2×) and 20 and 30 and 40"}, {"measurement": "average threshold shift, 0.5 kHz", "setting": "[3]; Day 20", "value": 3}, {"measurement": "average threshold shift, 1 kHz", "setting": "[3]; Day 20", "value": 1.25}, {"measurement": "average threshold shift, 2 kHz", "setting": "[3]; Day 20", "value": 6.25}, {"measurement": "average threshold shift, 4 kHz", "setting": "[3]; Day 20", "value": 9}, {"measurement": "average threshold shift, 8 kHz", "setting": "[3]; Day 20", "value": 3.75}, {"measurement": "threshold shift, 0.5 kHz", "setting": "[3]; Day 20", "value": "0 (2×) and 5 and 7"}, {"measurement": "threshold shift, 1 kHz", "setting": "[3]; Day 20", "value": "0 (3×) and 5"}, {"measurement": "threshold shift, 2 kHz", "setting": "[3]; Day 20", "value": "0 (2×) and 15 and 10"}, {"measurement": "threshold shift, 4 kHz", "setting": "[3]; Day 20", "value": "0 (2×) and 11 and 25"}, {"measurement": "threshold shift, 8 kHz", "setting": "[3]; Day 20", "value": "−5 and 5 and 0 and 15"}, {"measurement": "average threshold shift, 0.5 kHz", "setting": "[3]; Pretest", "value": 26.6}, {"measurement": "average threshold shift, 1 kHz", "setting": "[3]; Pretest", "value": 24.5}, {"measurement": "average threshold shift, 2 kHz", "setting": "[3]; Pretest", "value": 20}, {"measurement": "average threshold shift, 4 kHz", "setting": "[3]; Pretest", "value": 12.4}, {"measurement": "average threshold shift, 8 kHz", "setting": "[3]; Pretest", "value": 4}, {"measurement": "threshold shift, 0.5 kHz", "setting": "[3]; Pretest", "value": "30 and 35 and 25 and 20 and 23"}, {"measurement": "threshold shift, 1 kHz", "setting": "[3]; Pretest", "value": "22.5 and 25 (4×)"}, {"measurement": "threshold shift, 2 kHz", "setting": "[3]; Pretest", "value": "25 (3×) and 10 and 15"}, {"measurement": "threshold shift, 4 kHz", "setting": "[3]; Pretest", "value": "20 and 10 and 12 and 5 and 15"}, {"measurement": "threshold shift, 8 kHz", "setting": "[3]; Pretest", "value": "10 (2×) and 0 (3×)"}, {"measurement": "protection against the noise exposure", "setting": "[3]; in vivo, listed as CH-65", "value": "provided protection against the noise exposure"}, {"measurement": "average dB threshold shifts, treated ears versus control", "setting": "[4]", "value": "lower"}, {"measurement": "protection against cisplatin-induced hearing loss", "setting": "[5]", "value": "protected against ciplatin-induced hearing loss"}]}
